The values that follow come from patent publication US20070117770A1, “Human ribosomal DNA (rDNA) and ribosomal RNA (rRNA) nucleic acids and uses thereof” (Cylene Pharmaceuticals, Inc., priority 2005, published 2007).

“Also recorded” adds a separate entry of the source.

For one assay, the target named is ALK(h) (Homo sapiens, UniProt Q9UM73). Put plainly: Protein kinase inhibition assay. The assay is classed as biochemical. The note with it: read-out: percent residual activity of ALK(h). The protocol:
(§1) Certain compounds were tested for activity in protein kinase inhibition assays. All substrates were dissolved and diluted to working stocks in de-ionized water, apart from histone H1 (10× working stock in 20 mM MOPS pH 7.0), PDKtide (10× working stock in 50 mM Tris pH 7.0) ATF2 (which is typically stored at a 20× working stock in 50 mM Tris pH 7.5, 150 mM NaCl, 0.1 mM EGTA, 0.03% Brij-35, 50% glycerol, 1 mM benzamidine, 0.2 mM PMSF and 0.1% R-mercaptoethanol), KKLNRTLSFAEPG (SEQ ID NO:203) and RRRLSFAEPG (SEQ ID NO:204) (50 mM HEPES pH 7.4) and GGEEEEYFELVKKKK (SEQ ID NO:205) (20 mM MOPS pH 7.0). All kinases were pre-diluted to a 10× working concentration prior to addition into the assay. The composition of the dilution buffer for each kinase is detailed below.
(§2) In a final reaction volume of 25 μl, ALK (h) (5-10 mU) is incubated with 8 mM MOPS pH 7.0, 0.2 mM EDTA, 250 μM KKKSPGEYVNIEFG (SEQ ID NO:207), 10 mM MgAcetate and [y -33P-ATP] (specific activity approx. 500 cpm/pmol, concentration as required). The reaction is initiated by the addition of the MgATP mix. After incubation for 40 minutes at room temperature, the reaction is stopped by the addition of 5 μl of a 3% phosphoric acid solution. 10 μl of the reaction is then spotted onto a P30 filtermat and washed three times for 5 minutes in 75 mM phosphoric acid and once in methanol prior to drying and scintillation counting.

In assay [1] the test system is 28S rRNA and 18S rRNA (total RNA from HCT116 cells). Description: Human rRNA interaction screening assay (agarose gel electrophoresis mobility shift). Type of assay: binding. To be noted: 1 ug total RNA; 10 uM compound or 0.5 ug/mL PI, 15 min, room temperature. The protocol:
RNA was isolated from HCT116 cells (RNeasy kit, QIAGEN) and contacted in vitro with each compound from a library of compounds. In representative assays, 1 ug of total RNA from HCT116 cells was incubated with 0.5 ug/mL of propidium iodide (PI), 10 uM compound A-1 or another compound in the library in a volume of 10 uL for 15 min at room temperature, followed by agarose gel electrophoresis. Fluorescence of the compounds was visualized on each gel. […] Compounds C-1, C-2, C-3, C-4 and C-5 have the following general formula: [drawing 15] [drawing 16]

In a further assay the target is CHK2(h) (Homo sapiens, UniProt O96017). Description: Protein kinase inhibition assay. Type of assay: biochemical. To be noted: read-out: percent residual activity of CHK2(h). The procedure: as §1
as §2, with “CHK2” for “ALK”, “200” for “250”, “KKKSPGEYVNIEFG” left out, “NO:213),” for “NO:207),”, “[gamma-33P-ATP]” for “[y -33P-ATP]”

In assay [2] the test system is mixed-parallel quadruplex structure. The note with it: cited from earlier work.
In a further assay the target is Hck(h) (Homo sapiens, UniProt P08631). Description: Protein kinase inhibition assay. The assay is classed as biochemical. To be noted: read-out: percent residual activity of Hck(h). The procedure:
as §1
In a final reaction volume of 25 μl, Hck (h) (5-10 mU) is incubated with 8 mM MOPS pH 7.0, 0.2 mM EDTA, 250 μM KVEKIGEGTYGVVYK (Cdc2 peptide) (SEQ ID NO:211), 10 mM MgAcetate and [gamma-33P-ATP] (specific activity approx. 500 cpm/pmol, concentration as required). The reaction is initiated by the addition of the MgATP mix. After incubation for 40 minutes at room temperature, the reaction is stopped by the addition of 5 μl of a 3% phosphoric acid solution. […]

The target of the next assay is PKD2(h) (Homo sapiens, UniProt Q9BZL6). Description: Protein kinase inhibition assay. The assay is classed as biochemical. To be noted: read-out: percent residual activity of PKD2(h). The protocol:
as §1
In a final reaction volume of 25 μl, PKD2 (h) (5-10 mU) is incubated with 20 mM HEPES pH 7.4, 0.03% Triton X-100, 30 μM KKLNRTLSVA (SEQ ID NO:212) 10 mM MgAcetate and [gamma-33P-ATP] (specific activity approx. 500 cpm/pmol, concentration as required). The reaction is initiated by the addition of the MgATP mix. After incubation for 40 minutes at room temperature, the reaction is stopped by the addition of 5 μl of a 3% phosphoric acid solution. 10 μl of the reaction is then spotted onto a P30 filtermat and washed three times for 5 minutes in 75 mM phosphoric acid and once in methanol prior to drying and scintillation counting.

In another assay the target is Lyn(h) (Homo sapiens, UniProt P07948). Put plainly: Protein kinase inhibition assay. The assay is classed as biochemical. To be noted: read-out: percent residual activity of Lyn(h). The protocol: as §1
In a final reaction volume of 25 μl, Lyn (h) (5-10 mU) is incubated with 50 mM Tris pH 7.5, 0.1 mM EGTA, 0.1 mM Na3VO4, 0.1% R-mercaptoethanol, 0.1 mg/ml poly(Glu, Tyr) 4:1, 10 mM MgAcetate and [gamma-33P-ATP] (specific activity approx. 500 cpm/pmol, concentration as required). The reaction is initiated by the addition of the MgATP mix. After incubation for 40 minutes at room temperature, the reaction is stopped by the addition of 5 μl of a 3% phosphoric acid solution. […]

Chain of PKD2(h) (Q9BZL6 whole entry): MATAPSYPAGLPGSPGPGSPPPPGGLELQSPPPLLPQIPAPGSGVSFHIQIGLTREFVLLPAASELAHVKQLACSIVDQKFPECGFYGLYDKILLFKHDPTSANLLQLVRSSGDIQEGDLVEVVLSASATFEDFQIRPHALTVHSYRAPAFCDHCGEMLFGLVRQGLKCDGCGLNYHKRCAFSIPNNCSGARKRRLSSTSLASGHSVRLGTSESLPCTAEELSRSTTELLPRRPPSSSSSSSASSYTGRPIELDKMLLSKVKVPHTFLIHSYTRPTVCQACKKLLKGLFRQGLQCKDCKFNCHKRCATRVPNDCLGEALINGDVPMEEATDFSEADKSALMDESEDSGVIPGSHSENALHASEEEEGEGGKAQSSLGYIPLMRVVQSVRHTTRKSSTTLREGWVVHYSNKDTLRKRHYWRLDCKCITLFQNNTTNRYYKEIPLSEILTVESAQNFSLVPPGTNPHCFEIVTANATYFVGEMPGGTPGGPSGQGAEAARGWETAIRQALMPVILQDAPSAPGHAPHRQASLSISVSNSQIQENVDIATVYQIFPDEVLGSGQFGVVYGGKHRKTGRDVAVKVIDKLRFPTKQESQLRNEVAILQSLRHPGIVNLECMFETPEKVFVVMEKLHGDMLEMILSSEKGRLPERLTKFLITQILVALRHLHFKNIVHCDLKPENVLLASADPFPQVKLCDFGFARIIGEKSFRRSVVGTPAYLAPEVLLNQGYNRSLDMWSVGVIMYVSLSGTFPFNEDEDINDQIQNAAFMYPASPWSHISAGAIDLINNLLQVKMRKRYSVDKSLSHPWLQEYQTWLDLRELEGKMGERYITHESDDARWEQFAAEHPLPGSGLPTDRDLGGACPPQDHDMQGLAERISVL
Chain of ALK(h) (Q9UM73 19-1620): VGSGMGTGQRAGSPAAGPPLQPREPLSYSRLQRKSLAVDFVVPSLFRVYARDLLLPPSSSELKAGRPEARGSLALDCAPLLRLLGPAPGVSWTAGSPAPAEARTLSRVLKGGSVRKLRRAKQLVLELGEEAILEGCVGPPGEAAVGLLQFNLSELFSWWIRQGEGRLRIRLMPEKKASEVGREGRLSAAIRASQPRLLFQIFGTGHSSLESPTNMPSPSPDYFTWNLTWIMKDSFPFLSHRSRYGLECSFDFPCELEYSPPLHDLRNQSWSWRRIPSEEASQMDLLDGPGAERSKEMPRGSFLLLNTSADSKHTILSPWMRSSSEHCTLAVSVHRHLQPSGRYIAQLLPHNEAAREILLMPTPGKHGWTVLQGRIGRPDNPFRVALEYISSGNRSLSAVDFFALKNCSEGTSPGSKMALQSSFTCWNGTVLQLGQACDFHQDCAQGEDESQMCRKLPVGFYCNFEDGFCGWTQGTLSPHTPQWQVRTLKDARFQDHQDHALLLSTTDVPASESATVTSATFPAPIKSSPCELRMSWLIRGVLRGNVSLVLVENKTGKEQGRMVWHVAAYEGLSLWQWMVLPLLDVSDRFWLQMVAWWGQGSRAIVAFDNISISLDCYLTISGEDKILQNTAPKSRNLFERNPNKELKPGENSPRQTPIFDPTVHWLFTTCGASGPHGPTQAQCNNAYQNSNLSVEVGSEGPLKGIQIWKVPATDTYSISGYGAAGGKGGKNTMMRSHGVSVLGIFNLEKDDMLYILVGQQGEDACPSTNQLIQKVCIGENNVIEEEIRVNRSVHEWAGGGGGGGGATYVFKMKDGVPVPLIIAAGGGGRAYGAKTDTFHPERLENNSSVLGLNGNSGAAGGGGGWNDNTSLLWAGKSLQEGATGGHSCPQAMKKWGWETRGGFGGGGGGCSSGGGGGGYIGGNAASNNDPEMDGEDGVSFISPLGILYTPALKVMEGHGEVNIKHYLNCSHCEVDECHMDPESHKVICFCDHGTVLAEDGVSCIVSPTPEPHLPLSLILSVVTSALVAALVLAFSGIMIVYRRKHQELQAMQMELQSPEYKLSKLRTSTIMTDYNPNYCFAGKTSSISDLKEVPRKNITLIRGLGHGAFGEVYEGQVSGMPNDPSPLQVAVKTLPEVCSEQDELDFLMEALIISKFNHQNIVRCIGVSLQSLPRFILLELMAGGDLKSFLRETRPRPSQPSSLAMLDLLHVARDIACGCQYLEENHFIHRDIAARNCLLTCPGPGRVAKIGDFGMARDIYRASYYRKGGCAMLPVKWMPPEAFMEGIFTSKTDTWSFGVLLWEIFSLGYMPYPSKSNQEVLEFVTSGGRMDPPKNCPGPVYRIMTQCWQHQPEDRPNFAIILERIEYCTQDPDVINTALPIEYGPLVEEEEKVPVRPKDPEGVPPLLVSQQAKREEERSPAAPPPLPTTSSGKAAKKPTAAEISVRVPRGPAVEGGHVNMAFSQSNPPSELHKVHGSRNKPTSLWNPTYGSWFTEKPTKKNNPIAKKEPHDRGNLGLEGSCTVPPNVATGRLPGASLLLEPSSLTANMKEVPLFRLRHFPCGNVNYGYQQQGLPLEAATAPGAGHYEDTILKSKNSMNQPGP
Chain of CHK2(h) (O96017 whole entry): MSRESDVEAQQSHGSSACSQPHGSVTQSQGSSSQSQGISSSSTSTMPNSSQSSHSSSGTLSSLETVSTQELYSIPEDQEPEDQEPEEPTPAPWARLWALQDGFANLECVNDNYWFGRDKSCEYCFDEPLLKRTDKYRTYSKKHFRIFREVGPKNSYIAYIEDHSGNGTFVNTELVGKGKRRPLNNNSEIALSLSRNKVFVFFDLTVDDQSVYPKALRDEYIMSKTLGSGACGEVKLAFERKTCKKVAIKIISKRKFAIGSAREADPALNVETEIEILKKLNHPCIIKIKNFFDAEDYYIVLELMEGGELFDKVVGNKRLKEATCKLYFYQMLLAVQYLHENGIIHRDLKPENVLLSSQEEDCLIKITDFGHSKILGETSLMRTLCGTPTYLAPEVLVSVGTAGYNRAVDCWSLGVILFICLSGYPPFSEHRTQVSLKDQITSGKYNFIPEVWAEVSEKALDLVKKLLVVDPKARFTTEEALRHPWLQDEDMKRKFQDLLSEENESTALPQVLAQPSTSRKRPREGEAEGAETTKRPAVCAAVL
Chain of Lyn(h) (P07948 whole entry): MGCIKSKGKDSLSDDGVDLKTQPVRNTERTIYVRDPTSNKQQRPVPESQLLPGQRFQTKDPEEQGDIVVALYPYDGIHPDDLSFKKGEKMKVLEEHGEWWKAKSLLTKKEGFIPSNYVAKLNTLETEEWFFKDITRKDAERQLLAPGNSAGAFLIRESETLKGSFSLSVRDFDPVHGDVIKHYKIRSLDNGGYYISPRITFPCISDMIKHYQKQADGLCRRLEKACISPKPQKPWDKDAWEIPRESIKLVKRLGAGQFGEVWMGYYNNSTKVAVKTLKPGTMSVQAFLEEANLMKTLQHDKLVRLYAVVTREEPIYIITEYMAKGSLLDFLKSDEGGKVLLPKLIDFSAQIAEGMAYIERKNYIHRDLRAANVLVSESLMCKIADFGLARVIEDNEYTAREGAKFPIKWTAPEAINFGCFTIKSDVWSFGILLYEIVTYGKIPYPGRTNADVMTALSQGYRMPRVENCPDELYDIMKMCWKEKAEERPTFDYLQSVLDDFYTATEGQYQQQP
Chain of Hck(h) (P08631 whole entry): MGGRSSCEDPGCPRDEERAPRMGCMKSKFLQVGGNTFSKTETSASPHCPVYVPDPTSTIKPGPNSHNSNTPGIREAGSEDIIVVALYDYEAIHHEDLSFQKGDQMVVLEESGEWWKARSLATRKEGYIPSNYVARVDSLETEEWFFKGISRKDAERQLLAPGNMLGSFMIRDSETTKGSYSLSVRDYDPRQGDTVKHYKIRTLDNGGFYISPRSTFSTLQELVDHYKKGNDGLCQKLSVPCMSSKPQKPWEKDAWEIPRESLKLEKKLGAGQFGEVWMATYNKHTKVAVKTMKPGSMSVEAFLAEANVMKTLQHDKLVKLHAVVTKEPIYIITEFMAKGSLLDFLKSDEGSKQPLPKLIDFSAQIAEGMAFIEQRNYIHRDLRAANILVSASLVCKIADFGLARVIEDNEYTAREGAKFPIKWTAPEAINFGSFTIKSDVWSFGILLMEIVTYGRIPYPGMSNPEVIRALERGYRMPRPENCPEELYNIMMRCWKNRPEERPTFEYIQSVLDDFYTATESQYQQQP

Consider `CN1CCCC1CCNC(=O)c1cn2c3c(c(N4CCC(c5cnccn5)C4)c(F)cc3c1=O)Oc1cc3ccccc3cc1-2` (stereo not drawn) [Compound A-1], for which the remaining activity at 2.5 µM at ALK(h) came to 69%; at CHK2(h), 62%; at Hck(h) it was 84%; at PKD2(h), 79%; at Lyn(h), 110%. In addition, the “binding to 28S versus 18S rRNA” value in assay [1] is recorded as “bound preferentially to 28S rRNA; also recorded: selective binding to 28S over 18S”. In addition, the “preferred quadruplex structure in competition assays” value in assay [2] was “interact preferentially with a mixed-parallel quadruplex structure”.
Regarding `CC(=O)N1CCN(c2ccc3c(=O)c(C(=O)NCCN4CCCC4)c4n(C)c5ccccc5n4c3n2)CC1` [Compound B-1], the remaining activity at 2.5 µM on ALK(h) is 97%; on CHK2(h) it was 99%; at Hck(h), 89%; at PKD2(h) it was 98%; on Lyn(h) it was 122%.
